Columns and labels:
Botrytis cinerea = test: Action against Botrytis cinerea - fungal growth assay; type: cell-based; details: 0.002% active ingredient, PDB broth, 24° C., photometric after 3-4 days
Experimental: Conidia of the fungus from cryogenic storage are directly mixed into nutrient broth (PDB potato dextrose broth). After placing a (DMSO) solution of the test compounds (0.002% active ingredient) into a microtiter plate (96-well format) the nutrient broth containing the fungal spores is added.

| SMILES | melting point [°C] | fungal growth inhibition (Botrytis cinerea) [%] | inhibition at 0.002 % strength (Botrytis cinerea; Botrytis cinerea) [%] |
| --- | --- | --- | --- |
| Cc1cc(Br)cc(C)c1OCC(C)NC(=O)c1cn(C)nc1C(F)F (centres unmarked) [Compound 1.168, 3-difluoromethyl-1-methyl-1H-pyrazole-4-carboxylic acid [2-(4-bromo-2,6-dimethyl-phenoxy)-1-methyl-ethyl]-amide] | 119 to 121 |  |  |
| CC(COc1c(Br)cc(Br)cc1Br)NC(=O)c1cn(C)nc1C(F)F (centres unmarked) [Compound 1.193, 3-difluoromethyl-1-methyl-1H-pyrazole-4-carboxylic acid [1-methyl-2-(2,4,6-tribromo-phenoxy)-ethyl]-amide] | 122 to 124 |  |  |
| Cn1cc(C(=O)NC2(COc3ccc(Cl)cc3)CC2)c(C(F)F)n1 [Compound 1.221] |  | 50 |  |
| CC(COc1ncc(C(F)(F)F)cc1Cl)NC(=O)c1cn(C)nc1C(F)F (centres unmarked) [Compound 1.239, 3-difluoromethyl-1-methyl-1H-pyrazole-4-carboxylic acid [2-(3-chloro-5-trifluoromethyl-pyridin-2-yloxy)-1-methyl-ethyl]-amide] | 115 to 118 |  | 50 |
